Assay results from patent publication EP4667467A1, “PROTAC DEGRADERS OF MLLT1 AND/OR MLLT3” (Dark Blue Therapeutics Ltd, priority 2024, dated 2025).

Target: T1, MLLT1 (Homo sapiens, UniProt Q03111)
T1 construct: endogenous in cells; host or cells: MV4-11 (ATCC CRL-9591)
T1 sequence (Q03111 1-559): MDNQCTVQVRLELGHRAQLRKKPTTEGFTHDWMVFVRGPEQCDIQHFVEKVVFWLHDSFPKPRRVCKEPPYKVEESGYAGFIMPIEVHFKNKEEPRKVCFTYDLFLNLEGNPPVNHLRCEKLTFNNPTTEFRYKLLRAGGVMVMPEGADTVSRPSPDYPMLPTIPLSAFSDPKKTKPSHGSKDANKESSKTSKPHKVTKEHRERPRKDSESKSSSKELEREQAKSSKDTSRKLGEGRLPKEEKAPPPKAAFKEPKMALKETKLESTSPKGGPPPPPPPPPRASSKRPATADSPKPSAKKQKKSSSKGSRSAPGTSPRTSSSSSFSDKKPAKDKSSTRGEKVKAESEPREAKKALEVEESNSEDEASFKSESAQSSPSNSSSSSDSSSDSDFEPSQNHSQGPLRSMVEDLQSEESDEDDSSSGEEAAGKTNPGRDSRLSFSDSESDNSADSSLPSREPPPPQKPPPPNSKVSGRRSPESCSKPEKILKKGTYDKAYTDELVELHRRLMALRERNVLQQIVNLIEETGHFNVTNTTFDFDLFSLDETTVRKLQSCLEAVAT
Experiment: MLLT1 Degradation Assay (JESS automated chemiluminescent detection, MV4-11 cells)
Assay type: cell-based
Details: 24h, with respect to DMSO control; for MLLT1 % Degradation @ 0.01 µM: 0.01 µM (10 nM) test compound; for MLLT1 % Degradation @ 0.1 µM: 0.1 µM (100 nM) test compound; for MLLT 1 % Degradation @ 1 µM: 1 µM (1000 nM) test compound
Method in brief: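 MV4-11 cells were treated for 24 h at 37 °C, 5% CO2 with compound at 1000, 100 and 10 nM (0.1% DMSO). MLLT1 was quantified by automated capillary chemiluminescent immunodetection (JESS). Band peak areas were expressed as % degradation relative to DMSO control.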

SMILES	MLLT1 % Degradation @ 0.01 µM	MLLT1 % Degradation @ 0.1 µM	MLLT 1 % Degradation @ 1 µM
CN1CCC[C@@H]1c1cc2cnc(NC(=O)c3ccc(-c4cnn(CCCC5CCN(c6cccc(C(=O)N[C@H]7CCC(=O)NC7=O)n6)CC5)c4)cc3)cc2[nH]1 [Example 60, N-((S)-2,6-dioxopiperidin-3-yl)-6-(4-(3-(4-(4-((2-((R)-1-methylpyrrolidin-2-yl)-1H-pyrrolo[3,2-c]pyridin-6-yl)carbamoyl)phenyl)-1H-pyrazol-1-yl)propyl)piperidin-1-yl)picolinamide]	A (Category A: A ≥ 75% degradation)	A (Category A: A ≥ 75% degradation)	A (Category A: A ≥ 75% degradation)
CN1CCC[C@@H]1c1cc2cnc(NC(=O)c3ccc(-c4cnn(CCOC5CCN(c6cccc(C(=O)N[C@H]7CCC(=O)NC7=O)n6)CC5)c4)cc3)cc2[nH]1 [Example 61, N-((S)-2,6-dioxopiperidin-3-yl)-6-(4-(2-(4-(4-((2-((R)-1-methylpyrrolidin-2-yl)-1H-pyrrolo[3,2-c]pyridin-6-yl)carbamoyl)phenyl)-1H-pyrazol-1-yl)ethoxy)piperidin-1-yl)picolinamide]	A (Category A: A ≥ 75% degradation)	A (Category A: A ≥ 75% degradation)	B (Category B: 50% ≤ B < 75% degradation)
CN1CCC[C@@H]1c1cc2cnc(NC(=O)c3ccc(-c4cnn(CCCC#Cc5cccc(C(=O)N[C@H]6CCC(=O)NC6=O)n5)c4)cc3)cc2[nH]1 [Example 62, N-((S)-2,6-dioxopiperidin-3-yl)-6-(5-(4-(4-((2-((R)-1-methylpyrrolidin-2-yl)-1H-pyrrolo[3,2-c]pyridin-6-yl)carbamoyl)phenyl)-1H-pyrazol-1-yl)pent-1-yn-1-yl) picolinamide]	B (Category B: 50% ≤ B < 75% degradation)	A (Category A: A ≥ 75% degradation)	B (Category B: 50% ≤ B < 75% degradation)
CN1CCC[C@@H]1c1cc2cnc(NC(=O)c3ccc(CCCC#Cc4cccc(N5CCC(=O)NC5=O)n4)cc3)cc2[nH]1 [Example 63, (R)-4-(5-(6-(2,4-dioxotetrahydropyrimidin-1(2H)-yl)pyridin-2-yl)pent-4-yn-1-yl)-N-(2-(1-methylpyrrolidin-2-yl)-1H-pyrrolo[3,2-c]pyridin-6-yl)benzamide]	D (Category D: D < 25% degradation)	D (Category D: D < 25% degradation)	C (Category C: 25% ≤ C < 50% degradation)
CN1CCC[C@@H]1c1cc2cnc(NC(=O)c3ccc(N4CCC(N5CCN(c6cccc7c6C(=O)N(C6CCC(=O)NC6=O)C7=O)CC5)CC4)nc3)cc2[nH]1 (stereo partly drawn) [Example 64, 6-(4-(4-(2-(2,6-dioxopiperidin-3-yl)-1,3-dioxoisoindolin-4-yl)piperazin-1-yl)piperidin-1-yl)-N-(2-((R)-1-methylpyrrolidin-2-yl)-1H-pyrrolo[3,2-c]pyridin-6-yl)nicotinamide]	B (Category B: 50% ≤ B < 75% degradation)	B (Category B: 50% ≤ B < 75% degradation)	A (Category A: A ≥ 75% degradation)
CN1CCC[C@@H]1c1cc2cnc(NC(=O)c3cnc(N4CCC(C#Cc5cccc6c5CN(C5CCC(=O)NC5=O)C6=O)CC4)nc3)cc2[nH]1 (stereo partly drawn) [Example 65, 2-(4-((2-(2,6-dioxopiperidin-3-yl)-1-oxoisoindolin-4-yl)ethynyl)piperidin-1-yl)-N-(2-((R)-1-methylpyrrolidin-2-yl)-1H-pyrrolo[3,2-c]pyridin-6-yl)pyrimidine-5-carboxamide]	B (Category B: 50% ≤ B < 75% degradation)	B (Category B: 50% ≤ B < 75% degradation)	B (Category B: 50% ≤ B < 75% degradation)
CN1CCC[C@@H]1c1cc2cnc(NC(=O)c3ccc(OCC#Cc4cccc5c4n(C)c(=O)n5C4CCC(=O)NC4=O)cc3)cc2[nH]1 (stereo partly drawn) [Example 66, 4-((3-(1-(2,6-dioxopiperidin-3-yl)-3-methyl-2-oxo-2,3-dihydro-1H-benzo[d]imidazol-4-yl)prop-2-yn-1-yl)oxy)-N-(2-((R)-1-methylpyrrolidin-2-yl)-1H-pyrrolo[3,2-c]pyridin-6-yl)benzamide]	A (Category A: A ≥ 75% degradation)	A (Category A: A ≥ 75% degradation)	A (Category A: A ≥ 75% degradation)
CN1CCC[C@@H]1c1cc2cnc(NC(=O)c3ccc(N4CCC(c5ccc(-c6cccc7c6CN(C6CCC(=O)NC6=O)C7=O)cc5)CC4)nc3)cc2[nH]1 (stereo partly drawn) [Example 67, 6-(4-(4-(2-(2,6-dioxopiperidin-3-yl)-1-oxoisoindolin-4-yl)phenyl)piperidin-1-yl)-N-(2-((R)-1-methylpyrrolidin-2-yl)-1H-pyrrolo[3,2-c]pyridin-6-yl)nicotinamide]	A (Category A: A ≥ 75% degradation)	A (Category A: A ≥ 75% degradation)	A (Category A: A ≥ 75% degradation)
CN1CCC[C@@H]1c1[nH]c2cc(NC(=O)c3ccc(CCCCC#Cc4cccc5c4CN(C4CCC(=O)NC4=O)C5=O)nc3)ncc2c1Cl (stereo partly drawn) [Example 71, N-(3-chloro-2-((R)-1-methylpyrrolidin-2-yl)-1H-pyrrolo[3,2-c]pyridin-6-yl)-6-(6-(2-(2,6-dioxopiperidin-3-yl)-1-oxoisoindolin-4-yl)hex-5-yn-1-yl) nicotinamide]	A (Category A: A ≥ 75% degradation)	A (Category A: A ≥ 75% degradation)	B (Category B: 50% ≤ B < 75% degradation)
CN1CCC[C@@H]1c1[nH]c2cc(NC(=O)c3ccc(N4CCN(CC#Cc5cccc6c5CN(C5CCC(=O)NC5=O)C6=O)CC4)nc3)ncc2c1Cl (stereo partly drawn) [Example 72, N-(3-chloro-2-((R)-1-methylpyrrolidin-2-yl)-1H-pyrrolo[3,2-c]pyridin-6-yl)-6-(4-(3-(2-(2,6-dioxopiperidin-3-yl)-1-oxoisoindolin-4-yl)prop-2-yn-1-yl)piperazin-1-yl)nicotinamide]	A (Category A: A ≥ 75% degradation)	A (Category A: A ≥ 75% degradation)	C (Category C: 25% ≤ C < 50% degradation)
CCN1CCC[C@@H]1c1cc2cnc(NC(=O)c3ccc(N4CCC(CC#Cc5cccc6c5CN(C5CCC(=O)NC5=O)C6=O)CC4)nc3)cc2[nH]1 (stereo partly drawn) [Example 73, 6-(4-(3-(2-(2,6-dioxopiperidin-3-yl)-1-oxoisoindolin-4-yl)prop-2-yn-1-yl)piperidin-1-yl)-N-(2-((R)-1-ethylpyrrolidin-2-yl)-1H-pyrrolo[3,2-c]pyridin-6-yl)nicotinamide]	B (Category B: 50% ≤ B < 75% degradation)	A (Category A: A ≥ 75% degradation)	B (Category B: 50% ≤ B < 75% degradation)
CCN1CCC[C@@H]1c1cc2cnc(NC(=O)c3ccc(CCCCC#Cc4cccc5c4CN(C4CCC(=O)NC4=O)C5=O)nc3)cc2[nH]1 (stereo partly drawn) [Example 74, 6-(6-(2-(2,6-dioxopiperidin-3-yl)-1-oxoisoindolin-4-yl)hex-5-yn-1-yl)-N-(2-((R)-1-ethylpyrrolidin-2-yl)-1H-pyrrolo [3,2-c]pyridin-6-yl) nicotinamide]	B (Category B: 50% ≤ B < 75% degradation)	B (Category B: 50% ≤ B < 75% degradation)	B (Category B: 50% ≤ B < 75% degradation)
CN1CCC[C@@H]1c1cc2cnc(NC(=O)c3ccc(N4CCC(C5CCN(c6cccc7c6CN(C6CCC(=O)NC6=O)C7=O)CC5)CC4)nc3)cc2[nH]1 (stereo partly drawn) [Example 75, 6-(1'-(2-(2,6-dioxopiperidin-3-yl)-1-oxoisoindolin-4-yl)-[4,4'-bipiperidin]-1-yl)-N-(2-((R)-1-methylpyrrolidin-2-yl)-1H-pyrrolo[3,2-c]pyridin-6-yl)nicotinamide]	A (Category A: A ≥ 75% degradation)	A (Category A: A ≥ 75% degradation)	A (Category A: A ≥ 75% degradation)
